Reference: patent publication EP0226508A1, “Indolo[3,2-c]quinoline derivatives, process for their preparation and their anti-tumour activity” (priority 1985, dated 1987)
Read-outs that look alike come from different tables or passages of the source.

Tests used:
[1] = system: mélanome B 16; assay: In vivo antitumour activity, B 16 melanoma test; parameters: species or system souris hybrides BDF₁; conditions: for Jour médian de survie / T/C % / Nombre de survivants: B 16 melanoma; for Nombre de survivants: survivors at J 60; for Variation pondérale en g: in vivo, ip
Excerpt: (§1) L'activité antitumorale a été testée in vivo sur différentes tumeurs selon le protocole général suivant:
(§2) Toutes les souris mâles ou femelles sont inoculées par voie intrapéritonéale au jour Jo avec une quantité déterminée de cellules tumorales viables, variable selon la tumeur.
(§3) Elles sont ensuite réparties en différents lots. Chaque lot correspondant aux animaux traités par le produit à tester à une dose déterminée est composé de 10 souris. Dans ce cas, le produit à tester est dissous dans l'eau distillée et il est administré, pendant n jours (J₁-Jn) variables selon le protocole choisi, par voie intrapéritonéale à raison de 0,1 ml par 10 g de poids des souris traitées, les doses du produit administré étant précisées dans les tableaux ci-dessous.
(§4) Le lot "contrôle négatif", correspondant aux animaux qui ne sont pas traités par un produit, comprend 2 √N animaux, N étant égal au nombre total de souris traitées par un produit.
(§5) Enfin, tous les essais sont conduits parallèlement à l'étude d'un lot appelé "contrôle positif" de 10 animaux qui est traité par une molécule active, variable selon le protocole choisi, dans les mêmes conditions que les lots traités par le produit à tester, afin de valider l'essai.
(§6) L'activité antitumorale est évaluée en considé-rant l'augmentation du temps de survie des animaux traités par rapport à celui des animaux du lot "contrôle négatif" selon la formule : [formula]
(§7) Le produit est également considéré comme toxique lorsque la variation pondérale, exprimée en grammes et calculée par la formule : Poids moyen du lot mesuré au jour 5 -poids moyen du même lot au jour 1 est égale ou inférieure à - 4 g.
Les essais sont effectués avec des souris hybrides BDF₁ inoculées avec 0,5 ml d'un homogénat de mélanome B 16 réalisé à partir de 1 g de tumeur dans 10 ml de sérum physiologique. Le composé à tester est administré pendant 9 jours (J₁-J₉).Le contrôle positif du test est le Cis-Platine administré dans les mêmes conditions. Le nombre d'animaux survivants est évalué au jour J 60.

[2] = system: souris consanguines DBA₂ saines; assay: Acute toxicity, single intraperitoneal injection in healthy mice, mortality at day 7; type: in vivo; conditions: single i.p. injection, 50 mg/kg
[3] = system: lignée tumorale leucémie L 1210; assay: In vitro cytotoxic activity on L 1210 leukemia cell culture (inhibition of cell proliferation); type: cell-based; conditions: L 1210 culture in exponential growth, 37°C, after 48 hours of contact, read-out: ID 50 (the source's name)
Protocol: 1) In vitro : (PAOLETTI et al., Chem. Biol. Interaction, 1979, 25, 45-58).
L'activité cytotoxique des composés de l'invention a été évaluée par des essais in vitro. Ces essais consistent à ajouter des concentrations croissantes du composé à tester à une culture cellulaire de la lignée tumorale leucémie L 1210 en phase exponentielle de croissance. Les cellules sont incubées à 37°C dans une étuve à CO₂ et comptées toutes les 24 heures. Le calcul de l'ID₅₀ (concentration du produit exprimée en micromole 1⁻¹ qui inhibe la prolifération cellulaire à 50 p. 100) est effectuée après 48 heures de contact. Ainsi déterminées les ID₅₀ des composés de l'invention sont rassemblées dans le tableau ci-après.

[4] = system: leucémie P 388; assay: animal or person; type: in vivo, souris hybrides CDF 1; conditions: for Nombre de survivants: survivors at J 40; for Variation pondérale en g: in vivo, ip; for response vs control in vivo at 5 mg/kg / response vs control in vivo at 10 mg/kg / response vs control in vivo at 20 mg/kg / response vs control in vivo at 2.5 mg/kg: Mus musculus, P388, ip, read-out: T/C %
Excerpt: as §1, §2, §3, §4, §5, §6
as §7, with “Un composé est considéré comme étant actif lorsque la valeur du rapport T/C est égale ou supérieure à 125 % selon le protocole retenu. Il est toxique lorsque cette valeur est égale ou inférieure à 85 %. Le” for “Le”
a) Test de la leucémie P 388 (GERAN et al., Cancer Chemother, 1972, 2, 07-57).
Les essais sont effectués avec des souris hybrides CDF 1 inoculées par voie intrapéritonéale avec 10⁶ cellules leucémiques de la lignée P 388. Le composé à tester est administré pendant 5 jours (J1-J5). Le contrôle positif du test est le 5-fluorouracile qui est administré dans les mêmes conditions. Le nombre d'animaux survivants est évalué au jour J 40. Un composé est considéré comme étant actif lorsque le rapport T/C est supérieur à 127 %.

[5] = system: leucémie L 1210; assay: In vivo antitumour activity, L 1210 leukemia test; parameters: species or system souris hybrides CDF₁; conditions: L 1210, CDF₁ mice; for Nombre de survivants: survivors at J 30
Excerpt: as §1, §2, §3, §4, §5, §6
as §7, with “Un composé est considéré comme étant actif lorsque la valeur du rapport T/C est égale ou supérieure à 125 % selon le protocole retenu. Il est toxique lorsque cette valeur est égale ou inférieure à 85 %. Le” for “Le”
b) Test de la leucémie L 1210 (GERAN et al., Cancer Chemother, 1972, 2, 07-57).
Les essais sont effectués avec des souris hybrides CDF₁ inoculées avec 10⁵ cellules leucémiques de la lignée L 1210. Le composé à tester est administré pendant 5 jours (J₁-J₅).Le contrôle positif du test est le 5-fluorouracile administré dans les mêmes conditions. Le nombre d'animaux survivants est évalué au jour J 30. Un composé est considéré comme étant actif lorsque le rapport T/C est supérieur ou égal à 125 %.

[6] = P 388, CDF 1 mice, 5 mg/kg i.p. J1-J5
[7] = P 388, CDF 1 mice, 2,5 mg/kg i.p. J1-J5
[8] = P 388, CDF 1 mice, 10 mg/kg i.p. J1-J5
[9] = P 388, CDF 1 mice, 20 mg/kg i.p. J1-J5
[10] = BDF₁ mice, 2,5 mg/kg i.p. J1-J9

Row | Compound | mortalité évaluée au septième jour après l'administration [2] | Nombre de survivants [4, 6] | Nombre de survivants [4, 7] | Variation pondérale en g ([4]; 5 mg/kg) | Jour médian de survie ([5]; 5 mg/kg i.p. J1-J5) | T/C % ([5]; 5 mg/kg i.p. J1-J5) [%] | Nombre de survivants ([5]; 5 mg/kg i.p. J1-J5) | Jour médian de survie ([5]; 10 mg/kg i.p. J1-J5) | T/C % ([5]; 10 mg/kg i.p. J1-J5) [%] | Nombre de survivants ([5]; 10 mg/kg i.p. J1-J5) | IC50 ([3]; Mus musculus, L1210) [µM] | response vs control in vivo at 5 mg/kg [4, 6] [%] | response vs control in vivo at 10 mg/kg [4, 8] [%] | response vs control in vivo at 20 mg/kg [4, 9] [%] | response vs control in vivo at 2.5 mg/kg [4, 7] [%] | Nombre de survivants [4, 8] | Nombre de survivants [4, 9] | Variation pondérale en g ([4]; 10 mg/kg) | Variation pondérale en g ([4]; 20 mg/kg) | also measured
1 | (éthylamino-3 propylamino)-6 hydroxy-8 11-H indolo[3,2-c]quinoléine [Dérivé N°14] | aucune mortalité | 0 | 0 | + 1,7 g | – | – | – | – | – | – | – | – | – | – | – | – | – | – | – | Jour médian de survie ([1]; BDF₁ mice, 5 mg/kg i.p. J1-J9): 34,25; T/C % ([1]; BDF₁ mice, 5 mg/kg i.p. J1-J9): 123%; Jour médian de survie ([1]; BDF₁ mice, 20 mg/kg i.p. J1-J9): 38,75; T/C % ([1]; BDF₁ mice, 20 mg/kg i.p. J1-J9): 139%; Nombre de survivants ([1]; BDF₁ mice, 20 mg/kg i.p. J1-J9): 0; Variation pondérale en g ([1]; 5 mg/kg): - 0,2 g; Variation pondérale en g ([1]; 20 mg/kg): - 1,3 g; IC50 [3]: 1.4 µM; Jour médian de survie [4, 6]: 14,0; T/C % [4, 6]: 127%; Jour médian de survie [4, 7]: 14,0; T/C % [4, 7]: 127%
2 | Oc1ccc2[nH]c3c4ccccc4nc(NCCCN4CCCCC4)c3c2c1 [Dérivé N°16, hydroxy-8 (pipéridino-3 propylamino)-6 11-H indolo[3,2-c]quinoléine] | aucune mortalité | – | 0 | - 1,7 g | 10 | 126 | 0 | 10,4 | 131 | 0 | 0.18 | 133 | 130 | 77 | 140 | 0 | 0 | - 2,5 g | - 4,2 g | Jour médian de survie ([5]; 20 mg/kg i.p. J1-J5): 10,2; T/C % ([5]; 20 mg/kg i.p. J1-J5): 129%; Nombre de survivants ([5]; 20 mg/kg i.p. J1-J5): 0
3 | CCN(CC)CCCNc1nc2ccccc2c2c1c1cc(O)ccc1n2C [Dérivé N°3] | aucune mortalité | 0 | – | + 1,0 g | 10,6 | 129 | 0 | 11,3 | 138 | 0 | 0.06 | 155 | 147 | 149 | – | 0 | 0 | - 0,6 g | - 2,2 g | Jour médian de survie [1, 10]: 36; T/C % [1, 10]: 138%; Nombre de survivants [1, 10]: 0
4 | CCN(CC)CCCNc1nc2ccccc2c2c1c1cc(OC)ccc1n2C [Dérivé N°1, (diéthylamino-3 propylamino)-6 méthoxy-8 méthyl-11 11-H indolo[3,2-c]quinoléine] | aucune mortalité | 0 | – | - 0,4 g | – | – | – | – | – | – | 0.35 | 142 | 154 | 142 | – | 0 | 0 | - 0,7 g | - 1,2 g | –
5 | Oc1ccc2[nH]c3c4ccccc4nc(NCCCN4CCOCC4)c3c2c1 [Dérivé N°15, hydroxy-8 (morpholino-3 propylamino)-6 11-H indolo[3,2-c]quinoléine] | aucune mortalité | 0 | 0 | - 1,1 g | – | – | – | 10,2 | 129 | 0 | 0.28 | 130 | – | – | 124 | – | – | – | – | –
